Measurements: patent publication US20060009506A1, “Drugs for the treatment of neoplastic disorders” (Odyssey Thera, Inc., priority 2004, published 2006)

Tests used:
[1] = test system: cancer cells; assay: Antiproliferative activity against cancer cells (cell line not stated); type: cell-based, human; details: general statement
Source text: (§1) We first screened compounds derived from the known pharmacopeia and from a selected natural product collection using two types of assays: (a) measurements of post-translational modifications of proteins; (b) measurements of protein-protein interactions. For the purpose of measuring post-translational modifications of proteins, we used immunofluorescence methods combined with phospho-specific antibodies. For the purpose of quantifying and localizing protein complexes we used fluorescence methods based on protein-fragment complementation assays (PCA). ‘Hits’ from the initial screens were then tested for antiproliferative activity in up to 5 different human tumor cell lines. […] For drugs with antiproliferative activity in PC-3 cells, dose-response curves were generated to determine the EC50 for antiproliferative activity and additional tumor cell lines were tested to determine the breadth of activity. Methods for assay development, validation, screening, and testing of antiproliferative activity are described below.
Cells were maintained in various media as follows: A549, LoVo and PC-3 (Ham's F12K medium with 2 mM L-glutamine and 1.5 g/L sodium bicarbonate), MIA PaCa-2 (Dulbecco's modified Eagle's medium with 4 mM L-glutamine and 4.5 g/L glucose), U87-MG (MEM+Earle's BSS). Medium for each cell line was supplemented with 10% FBS and […] Penecillin/Streptomycin. All cells were grown in incubators set at 37° C., 5% CO2. Thiazolyl Blue Tetrazolium Bromide (MTT) based proliferation assays were performed to assess the anti-proliferative activities of the compounds on these cells. Cells were seeded in 96 well plates at a density of 750 cells/well 24 hours prior to compound treatment. The cells were incubated with varying concentrations of compounds for 120 hours. Compound concentrations range from 0.03 to 100 microM (half log increments) except for alpha-Tomatine (0.001-100 microM, half log increments), Neriifolin (0.0002-100 microM) and Peruvoside (0.01-100 microM). Drug treatment was performed in 5 replicate wells. Background absorbance was established by wells containing medium but no cells. Vehicle (DMSO) only was used as control. MTT (Sigma-Aldrich, St. Louis, Mo.) was added to each well at a final concentration of 0.5 mg/ml. Following a 2 hour incubation at 37° C., medium in the wells was replaced with 0.15 ml DMSO. The plates were agitated for 15 min using a microtiter plate shaker. […] Mean absorbance values were calculated from 5 replicate wells of each drug treatment following subtraction of background absorbance from blank samples and plotted as a percentage of control.

[2] = test system: cancer pathways; assay: Screening of cancer pathways in human cells (PCA and phospho-immunofluorescence); type: cell-based; details: cancer pathway in which the drug was active; screened at 10 micromolar, HEK293 cells
Source text: as §1
Immunofluorescence was performed on drug-treated cells using antibodies that specifically recognize phosphorylated forms of key signaling proteins. HEK293T cells were seeded in black-walled, poly-lysine coated 96-well plates (Greiner) at a density of 30,000/well. After 24 hours, cells in duplicate wells were treated with drugs. 100 ng/ml hEGF added to the cells during the last 5 min of drug treatment. The cells were rinsed once with PBS and fixed with 4% formaldehyde for 10 min. The cells were subsequently permeabilized with 0.25% Triton X-100 in PBS and incubated with 3% BSA for 30 min to block non-specific antibody binding. Each of the 4 sets of identically treated cells were then incubated with rabbit antibodies against phosphorylated CREB (Ser133), hsp27 (Ser82), pERK (T202/Y204) (Cell Signaling), or BSA in PBS. The cells were rinsed with PBS and incubated with Alexa488 conjugated goat anti-rabbit secondary antibody (Molecular Probes). Cell nuclei were stained with Hoechst33342 (Molecular Probes). Images were acquired using Discovery-1 High Content Imaging System (Molecular Devices). Background fluorescence due to nonspecific binding by the secondary antibody was established with the use of cells that were incubated with BSA/PBS and without primary antibodies. Fluorescence intensities were quantitated using Image J-based image analysis algorithm as described below.
Reporter fragments for PCA were generated by oligonucleotide synthesis (Blue Heron Biotechnology, Bothell, Wash.). First, oligonucleotides coding for polypeptide fragments YFP[1]and YFP[2] […] Next, PCR mutagenesis was used to generate the mutant fragments IFP[1] and IFP[2]. The IFP[1] fragment corresponds to YFP[1]-(F46L, F64L, M153T) and the IFP[2] fragment corresponds to YFP[2]-(V163A, S175G). […] The YFP[1], YFP[2], IFP[1] and IFP[2] fragments were amplified by PCR to incorporate restriction sites and a linker sequence, described below, in configurations that would allow fusion of a gene of interest to either the 5′- or 3′-end of each reporter fragment. The reporter-linker fragment cassettes were subcloned into a mammalian expression vector (pcDNA3.1Z, Invitrogen) that had been modified to incorporate the replication origin (oriP) of the Epstein Barr virus (EBV). […] Additionally, these vectors still retain the SV40 origin, allowing for episomal expression in cell lines expressing the SV40 large T antigen (e.g. HEK293T, Jurkat or COS). […] PCA fusion constructs were prepared for a large number of proteins known to participate in cellular pathways (Table 1 and Table 2). The full coding sequence for each gene of interest was amplified by PCR from a sequence-verified full-length cDNA.

[3] = test system: A549 cells; assay: MTT proliferation assay, non-small cell lung carcinoma A549; type: cell-based, Human; details: Tumor Cell: NSCLC (A549), concentrations tested in microM
Source text: as §1
(§2) Cells were maintained in various media as follows: A549, LoVo and PC-3 (Ham's F12K medium with 2 mM L-glutamine and 1.5 g/L sodium bicarbonate), MIA PaCa-2 (Dulbecco's modified Eagle's medium with 4 mM L-glutamine and 4.5 g/L glucose), U87-MG (MEM+Earle's BSS). Medium for each cell line was supplemented with 10% FBS and […] Penecillin/Streptomycin. All cells were grown in incubators set at 37° C., 5% CO2. Thiazolyl Blue Tetrazolium Bromide (MTT) based proliferation assays were performed to assess the anti-proliferative activities of the compounds on these cells. Cells were seeded in 96 well plates at a density of 750 cells/well 24 hours prior to compound treatment. The cells were incubated with varying concentrations of compounds for 120 hours. […] Drug treatment was performed in 5 replicate wells. Background absorbance was established by wells containing medium but no cells. Vehicle (DMSO) only was used as control. MTT (Sigma-Aldrich, St. Louis, Mo.) was added to each well at a final concentration of 0.5 mg/ml. Following a 2 hour incubation at 37° C., medium in the wells was replaced with 0.15 ml DMSO. The plates were agitated for 15 min using a microtiter plate shaker.

[4] = test system: MIA PaCa-2 cells; assay: MTT proliferation assay, pancreatic carcinoma MIA PaCa-2; type: cell-based; details: Homo sapiens, Tumor Cell: Pancreatic (MIA PaCa-2), concentrations tested in microM
Source text: as §1, §2

CCN(CCCCOC(=O)c1ccc(OC)c(OC)c1)C(C)Cc1ccc(OC)cc1 (stereo not shown) [Mebeverine]
Antiproliferative activity against cancer cells [1]: substantial antiproliferative activity | Pathway Activity [2]: invasion/metastasis

C=C1c2c(Cl)ccc(O)c2C(=O)C2=C(O)[C@]3(O)C(=O)C(C(N)=O)=C(O)[C@@H](N(C)C)[C@@H]3[C@@H](O)[C@H]12 [Meclocycline]
IC50 ([3]; Homo sapiens, A549, 120 h): 18.8 µM | IC50 ([4]; MIA PaCa-2, 120 h): 68.2 µM

CNCCCN1c2ccccc2CCc2ccccc21 [Desipramine]
IC50 ([3]; Homo sapiens, A549, 120 h): 11.9 µM | Antiproliferative activity against cancer cells [1]: substantial antiproliferative activity | Pathway Activity [2]: proliferation | IC50 ([4]; MIA PaCa-2, 120 h): 1.93 µM

CC(C)COCC(CN(Cc1ccccc1)c1ccccc1)N1CCCC1 (stereo not shown) [Bepridil]
IC50 ([3]; Homo sapiens, A549, 120 h): 4.74 µM | Antiproliferative activity against cancer cells [1]: substantial antiproliferative activity | Pathway Activity [2]: invasion/metastasis | IC50 ([4]; MIA PaCa-2, 120 h): 1.58 µM

CCCCCCCCNC(C)C(O)c1ccc(SC(C)C)cc1 (stereo not shown) [Suloctidil]
IC50 ([3]; Homo sapiens, A549, 120 h): 0.78 µM | Antiproliferative activity against cancer cells [1]: substantial antiproliferative activity | Pathway Activity [2]: invasion/metastasis | IC50 ([4]; MIA PaCa-2, 120 h): 0.18 µM

Cc1c(NC(C)C)c(=O)n(-c2ccccc2)n1C [Ramifenazone]
Antiproliferative activity against cancer cells [1]: substantial antiproliferative activity | Pathway Activity [2]: invasion/metastasis

CO[C@H]1[C@H](O)[C@H](O[C@H]2CC[C@@]3(C=O)[C@H](CC[C@@H]4[C@@H]3CC[C@]3(C)[C@@H](C5=CC(=O)OC5)CC[C@]43O)C2)O[C@@H](C)[C@@H]1O [Peruvoside]
IC50 ([3]; Homo sapiens, 120 hours): < 0.03 µM | Antiproliferative activity against cancer cells [1]: substantial antiproliferative activity | Pathway Activity [2]: cell cycle | IC50 ([4]; 120 hours): < 0.03 µM

COC(=O)C1=C(C)NC(C)=C(C(=O)OCCN(C)Cc2ccccc2)C1c1cccc([N+](=O)[O-])c1 (stereo not shown) [Nicardipine]
IC50 ([3]; Homo sapiens, A549, 120 h): 21.9 µM | IC50 ([4]; MIA PaCa-2, 120 h): 20.4 µM

CC(CN1c2ccccc2Sc2ccccc21)N(C)C (stereo not shown) [Promethazine]
IC50 ([3]; Homo sapiens, A549, 120 h): 53.8 µM | Antiproliferative activity against cancer cells [1]: substantial antiproliferative activity | Pathway Activity [2]: proliferation | IC50 ([4]; MIA PaCa-2, 120 h): 22.2 µM

Cc1c(N(C)CS(=O)(=O)[O-])c(=O)n(-c2ccccc2)n1C.[Na+] [dipyrone]
Antiproliferative activity against cancer cells [1]: substantial antiproliferative activity

CCN(CC)CCOc1ccc(C(=C(Cl)c2ccccc2)c2ccccc2)cc1 [Clomiphene]
Antiproliferative activity against cancer cells [1]: substantial antiproliferative activity | Pathway Activity [2]: proliferation

C[C@H]1CC[C@]2(NC1)O[C@H]1C[C@H]3[C@@H]4CC[C@H]5C[C@@H](O[C@@H]6O[C@H](CO)[C@H](O[C@@H]7O[C@H](CO)[C@@H](O)[C@H](O[C@@H]8OC[C@@H](O)[C@H](O)[C@H]8O)[C@H]7O[C@@H]7O[C@H](CO)[C@@H](O)[C@H](O)[C@H]7O)[C@H](O)[C@H]6O)CC[C@]5(C)[C@H]4CC[C@]3(C)[C@H]1[C@@H]2C [Tomatine]
IC50 ([3]; Homo sapiens, 120 hours): 0.06 µM | Antiproliferative activity against cancer cells [1]: substantial antiproliferative activity | Pathway Activity [2]: invasion/metastasis | IC50 ([4]; 120 hours): 0.1 µM

C[n+]1cc2c3c(ccc2c2ccc4cc5c(cc4c21)OCO5)OCO3 [Sanguinarine]
IC50 ([3]; Homo sapiens, 120 hours): 2.23 µM | IC50 ([4]; 120 hours): 1.93 µM

CN1C[C@H](CNC(=O)OCc2ccccc2)C[C@@H]2c3cccc4c3c(cn4C)C[C@H]21 [Melergoline]
IC50 ([3]; Homo sapiens, A549, 120 h): 5.7 µM | Antiproliferative activity against cancer cells [1]: substantial antiproliferative activity | Pathway Activity [2]: invasion/metastasis | IC50 ([4]; MIA PaCa-2, 120 h): 20.7 µM

COc1c2ccoc2cc2oc(=O)ccc12 [Bergaptene]
IC50 ([3]; Homo sapiens, A549, 120 h): 56.4 µM | Antiproliferative activity against cancer cells [1]: substantial antiproliferative activity | Pathway Activity [2]: proliferation; invasion/ | IC50 ([4]; MIA PaCa-2, 120 h): 58.3 µM

COC(=O)Nc1nc2ccc(C(=O)c3ccccc3)cc2[nH]1 [Mebendazole]
IC50 ([3]; Homo sapiens, A549, 120 h): 0.18 µM | IC50 ([3]; 120 hours): 0.28 µM | Antiproliferative activity against cancer cells [1]: substantial antiproliferative activity | Pathway Activity [2]: invasion/metastasis

Cc1c(N(C)C)c(=O)n(-c2ccccc2)n1C [4-dimethylaminoantipyrine]
Antiproliferative activity against cancer cells [1]: substantial antiproliferative activity

Fc1ccc(C(c2ccc(F)cc2)N2CCN(C/C=C/c3ccccc3)CC2)cc1 [Flunarizine]
Antiproliferative activity against cancer cells [1]: substantial antiproliferative activity | Pathway Activity [2]: invasion/metastasis

CN[C@H]1CC[C@@H](c2ccc(Cl)c(Cl)c2)c2ccccc21 [Sertraline]
Antiproliferative activity against cancer cells [1]: substantial antiproliferative activity | Pathway Activity [2]: apoptosis

COC(=O)[C@H]1[C@H]2C[C@@H]3c4[nH]c5cc(OC)ccc5c4CCN3C[C@H]2C[C@@H](OC(=O)c2cc(OC)c(OC)c(OC)c2)[C@@H]1OC [reserpine, Reserpine]
Antiproliferative activity against cancer cells [1]: substantial antiproliferative activity
